Measurements from article PMC12005787, “Synthetic Lethality of SHP2 and XIAP Suppresses Proliferation and Metastasis in KRAS‐mutant Nonsmall Cell Lung Cancer” (Advanced Science, 2025).
*1 amine or outer side, *2 acyl side, *3 side chain or, on linkers, in order; H or OH if unused. Where a SMILES comes first, the peptide text is derived from it. Bridges are numbered along the chain shown (N, C = ends). Roman numbers before positions name the chains, in order. [ ]: non-standard residue; d: D form. Hexamethylenediamine = C(CCCN[*:2])CCN[*:1]; Dip = N[C@H](C(=O)O)C(c1ccccc1)c1ccccc1; Chg = N[C@H](C(=O)O)C1CCCCC1; NMeA = CN[C@@H](C)C(=O)O

Experiments:
[1] = tested on: NCI-H2122, A549, and NCI-H1944 cells; test: Cell senescence β-galactosidase staining; format: cell-based, human; settings: NCI‐H2122 cells; candidate drugs 10 μM
Protocol: Cell senescence β-galactosidase staining
NCI-H2122, A549, and NCI-H1944 cells in the logarithmic growth phase were seeded into 48-well plates and cultured overnight. The supernatant was aspirated and fresh serum-free (0%), low-serum (3%), or regular serum (10%) medium with different drugs was added for 48 h. When the supernatant was discarded, β-galactosidase staining fixation fluid were added for 15 min and β-galactosidase staining solution were imported overnight at 37 ℃.
Finally, the staining results were recorded using an inverted microscope.

SHP2 = target: T1, SHP2 (Homo sapiens, UniProt Q06124); test: Cellular thermal shift assay (CETSA); format: binding; settings: NCI‐H2122 cell lysate
T1 construct: endogenous in cells; host or cells: NCI-H2122
T1 sequence (Q06124 1-593): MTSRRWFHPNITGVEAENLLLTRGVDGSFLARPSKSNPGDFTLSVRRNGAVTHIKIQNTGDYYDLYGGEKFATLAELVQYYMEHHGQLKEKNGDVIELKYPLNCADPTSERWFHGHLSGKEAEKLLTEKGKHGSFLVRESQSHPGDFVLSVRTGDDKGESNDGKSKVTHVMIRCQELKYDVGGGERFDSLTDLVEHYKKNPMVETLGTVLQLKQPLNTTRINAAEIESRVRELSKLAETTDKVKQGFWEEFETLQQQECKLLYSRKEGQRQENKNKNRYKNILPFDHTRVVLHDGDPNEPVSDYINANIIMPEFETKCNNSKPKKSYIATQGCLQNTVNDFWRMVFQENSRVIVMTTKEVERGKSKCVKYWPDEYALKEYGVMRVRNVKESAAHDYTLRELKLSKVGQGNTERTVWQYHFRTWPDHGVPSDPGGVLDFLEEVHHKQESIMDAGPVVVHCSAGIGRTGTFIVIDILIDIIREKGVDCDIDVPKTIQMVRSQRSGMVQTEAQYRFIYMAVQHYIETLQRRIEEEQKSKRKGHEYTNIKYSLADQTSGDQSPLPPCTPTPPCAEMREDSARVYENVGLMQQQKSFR
Protocol: (§1) NCI‐H2122 cells were harvested and resuspended with pre‐cooled PBS containing 1% cocktail, which was then frozen in liquid nitrogen for 5 min and thawed in a water bath at 37 °C for 5 min for three repetitions. The supernatant was collected via centrifugation at 4 °C (15 000 × g, 20 min), divided into two equal portions; one was added with test drugs or various concentrations of embelin, and the other was added with DMSO as control and subsequently incubated at 25 °C for 30 min. All samples were heated at temperatures ranging from 52–70 °C for 3 min, and subsequently in an ice bath for 3 min and collected by centrifugation at 4 °C (15 000 × g, 20 min), and added with protein sampling buffer at 100 °C for 5 min, followed by analysis of protein stability using western blotting.

A549 and NCI‐H2122 cells = test: Cell proliferation in monolayer culture (CCK-8); format: cell-based, human
Protocol: (§2) For the adherent cell viability assay, cells in the logarithmic growth phase were seeded in 96-well culture plates at a density of 5×103 well-1 and incubated overnight. Diluted compounds or DMSO were added, or specific treatments were incubated at 37 °C and 5% CO2 for 24 h or 48 h. Cell viability was determined using CCK-8 or CellLightTM Cell Viability Assay Kit, according to the manufacturer's protocol. The luminescence signals of the treated samples were normalized to those of the DMSO group. […]
Figure S7. Targeting SHP2 and XIAP produces a synthetic lethal effect. (A) Effects of NSC-87877 on cell viability of A549 and NCI-H2122 cells after 24 and 48 h were determined using the CCK-8. Bars, ± SEM. The curves were plotted using a variable slope (four-parameter) non-linear fit. (B, E, F, and I) Effects of Na3VO4 (B), birinapant (E), BV-6 (F), and LCL161 (I) on cell viability of human NCI-H2122 cells at 48 h were determined using the CCK-8. *p < 0.05, **p < 0.01 and ***p < 0.001 compared to control group (unpaired two-tailed Student’s t-test).(C, G) Effects of SHP099 (C) and GDC-0152 (G) on cell viability after 24 and 48 h were determined using the CCK-8. Bars, ± SEM. The curves were plotted using a variable slope (four-parameter) non-linear fit.(D, H) Effects of SHP099 (D) and GDC-0152 (H) on cell viability were determined after 48 h using intracellular ATP chemiluminescence. **p < 0.01 and ***p < 0.001 compared to control group (unpaired two-tailed Student’s t-test).(J) Effects of SHP099 and GDC-0152 separately and in combination, and the effect of embelin for 24 h on the cell viability were assessed using intracellular ATP […]
tailed Student’s t-test).(K) Effects of SHP099 and GDC-0152 separately and in combination with […] on the cell viability of human KRAS-WT and -mutant cells were assessed using a colony formation assay. (L, M) A549 and NCI-H2122 cells were instantaneously transfected with siPTPN11 and siXIAP separately and together for 24 h under

[2] = tested on: KRAS‐mutant NSCLC cells in 3D culture; test: Cell proliferation in 3D cell culture (ATP chemiluminescence); format: cell-based
Protocol: (§3) supplies are listed in Supplementary Table S5. […]
For the adherent cell viability assay, cells in the logarithmic growth phase were seeded in 96-well culture plates at a density of 5×103 well-1 and incubated overnight. Diluted compounds or DMSO were added, or specific treatments were incubated at 37 °C and 5% CO2 for 24 h or 48 h. Cell viability was determined using CCK-8 or CellLightTM Cell Viability Assay Kit, according to the manufacturer's protocol. The luminescence signals of the treated samples were normalized to those of the DMSO group.
For spherical cell viability assays, cells in the logarithmic growth phase were inoculated ata density of 4×10^3 well-1 into 96-well spherical cell microplates and incubated at 37 °C, 5% CO2 for 24 h or 48 h. Cell viability was measured using the CellTiter-Glo® Luminescent Cell Viability 3D Cell Viability Assay Kit, according to the manufacturer’s protocol. The remaining steps were the same as those described above. […]
Figure S7. Targeting SHP2 and XIAP produces a synthetic lethal effect. (A) Effects of NSC-87877 on cell viability of A549 and NCI-H2122 cells after 24 and 48 h were determined using the CCK-8. Bars, ± SEM. […]
tailed Student’s t-test).(K) Effects of SHP099 and GDC-0152 separately and in combination with […] on the cell viability of human KRAS-WT and -mutant cells were assessed using a colony formation assay. […]

NCI‐H2122 tumor = test: NCI-H2122 subcutaneous transplantation tumor model; format: in vivo, BALB/c‐nu mouse; settings: i.p., q2d
Protocol: NCI‐H2122 cells in the logarithmic growth phase were collected by mixing serum‐free RMPI‐1640 medium and Matrigel matrix gel, and injected subcutaneously into the right axilla of thymus‐less male BALB/c‐nu nude mice. Tumor volume was calculated according to V = ab^2/2 (where a and b are the long and short diameters of the tumor, respectively), and body weight was recorded every 3 days. When the tumor volume reached 100 mm^3, the mice were randomly divided into six groups (ten mice in each group): Control group (i.p, q2d), SHP099 (20 mg kg^−1, i.p, q2d) group, GDC‐0152 (20 mg kg^−1, i.p, q2d) group, SHP099 (20 mg kg^−1, i.p, q2d) + GDC‐ 0152 (20 mg kg^−1, i.p, q2d) co‐administration group, embelin (20 mg kg^−1, i.p, q2d) medium‐dose group and embelin (30 mg kg^−1, i.p, q2d) high‐dose group. When the tumor volume reached 1000 mm^3, all experimental mice were sacrificed, and tumor tissues and major organs, such as the heart, liver, spleen, lungs, and kidneys, were collected for further study.

XIAP = target: T2, XIAP (Homo sapiens, UniProt P98170); test: Cellular thermal shift assay (CETSA); format: binding; settings: 56 and 62 ℃
T2 construct: endogenous in cells; host or cells: NCI-H2122
Protocol: as §1

A549 cells = test: Cell viability assay (CCK-8); format: cell-based; settings: Homo sapiens; A549, KRAS G12S, 24 h; read-out: IC50 at 24 h
Protocol: as §3
(§4) KRAS-mutant and wild-type cells are listed in Supplementary Table S7.
as §2

NCI-H1975 cells = test: Cell viability assay (CCK-8); format: cell-based; settings: Homo sapiens, NCI-H1975, 24 h, NCI-H1975, RAS-wild type, EGFR L858R/T790M
Protocol: as §3, §4, §2

T2 sequence (P98170 whole entry): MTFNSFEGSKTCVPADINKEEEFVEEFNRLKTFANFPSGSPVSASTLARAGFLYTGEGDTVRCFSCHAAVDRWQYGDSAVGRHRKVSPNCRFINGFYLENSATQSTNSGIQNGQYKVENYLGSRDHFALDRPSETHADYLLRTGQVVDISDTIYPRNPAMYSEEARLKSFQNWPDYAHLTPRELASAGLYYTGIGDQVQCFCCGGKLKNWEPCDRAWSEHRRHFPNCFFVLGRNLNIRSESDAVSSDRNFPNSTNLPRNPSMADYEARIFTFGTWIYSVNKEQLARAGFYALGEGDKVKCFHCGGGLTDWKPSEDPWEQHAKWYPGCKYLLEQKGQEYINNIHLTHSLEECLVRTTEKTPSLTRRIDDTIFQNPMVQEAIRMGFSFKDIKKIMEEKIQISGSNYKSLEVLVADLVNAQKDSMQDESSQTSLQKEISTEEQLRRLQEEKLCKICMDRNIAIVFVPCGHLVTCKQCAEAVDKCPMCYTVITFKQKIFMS

effect on SHP2 protein stability (CETSA) (SHP2) | SMILES | induction of cell senescence [1] | effect on cell proliferation in monolayer cell culture mode (A549 and NCI‐H2122 cells) | further results
did not affect SHP2 protein stability | CC[C@H](NC(=O)[C@H](C)NC)C(=O)N1C[C@@H](O)C[C@H]1Cc1c(-c2[nH]c3cc(F)ccc3c2C[C@@H]2C[C@H](O)CN2C(=O)[C@H](CC)NC(=O)[C@H](C)NC)[nH]c2cc(F)ccc12 [Birinapant] | induced cellular senescence | almost no effect | 
did not affect SHP2 protein stability | CN[C@@H](C)C(=O)N[C@H](C(=O)N1CCC[C@H]1C(=O)Nc1snnc1-c1ccccc1)C1CCCCC1 [GDC‐0152] | induced cellular senescence | almost no effect | effect on cell proliferation in 3D cell culture [2]: partially inhibited cell proliferation; effect on body weight of the mice (NCI‐H2122 tumor): little or no effect on the body weight; effect on weights of hearts, livers, lungs, and kidneys and structure of hearts and kidneys (NCI‐H2122 tumor): no significant effect
did not affect SHP2 protein stability | CN[C@@H](C)C(=O)N[C@H](C(=O)N1CCC[C@H]1c1nc(C(=O)c2ccc(F)cc2)cs1)C1CCCCC1 [LCL‐161] | induced cellular senescence | almost no effect | 
 | O=S(=O)(O)c1ccc2cc(N=Nc3cc(S(=O)(=O)O)c4cccnc4c3O)ccc2c1 [NSC‐87877] |  | almost no effect | effect on XIAP protein stability (CETSA) (XIAP): did not affect XIAP protein stability
 | [Na+].[Na+].[Na+].[O]=[V]([O-])([O-])[O-] [Na3VO4] |  | almost no effect | effect on XIAP protein stability (CETSA) (XIAP): did not affect XIAP protein stability
 | C#Cc1cccc(Nc2ncnc3cc(OCCOC)c(OCCOC)cc23)c1 [erlotinib] |  |  | IC50 (A549 cells): > 100 µM; IC50 (NCI-H1975 cells): > 100 µM

SMILES | effect on SHP2 protein stability (CETSA) (SHP2) | induction of cell senescence [1] | effect on cell proliferation in monolayer cell culture mode (A549 and NCI‐H2122 cells) | further results
CN[C@@H](C)C(=O)N[C@H](C(=O)N1CCC[C@H]1C(=O)N[C@H](C(=O)NCCCCCCNC(=O)[C@@H](NC(=O)[C@@H]1CCCN1C(=O)[C@@H](NC(=O)[C@H](C)NC)C1CCCCC1)C(c1ccccc1)c1ccccc1)C(c1ccccc1)c1ccccc1)C1CCCCC1 [BV‐6] (I: H-[NMeA][Chg]P[Dip] / II: H-[NMeA][Chg]P[Dip]; linker I:C-II:C via Hexamethylenediamine) | did not affect SHP2 protein stability | induced cellular senescence | partially inhibited cell proliferation | 
